From patent US12344879B2, “Transgenic bacteria with expanded amino acid usage and nucleic acid molecules for use in the same” (BOARD OF REGENTS, THE UNIVERSITY OF TEXAS SYSTEM, priority 2015, dated 2025)
Values joined by “and” are separate entries in the source; they are usually repeats but may differ in a detail not shown here. Identical values can stand only once.

Experiments:
[1] = tested on: Pseudomonas aeruginosa azurin position 112; assay: Selenocysteine incorporation into azurin C112X by intact mass spectrometry; parameters: species or system E. coli RTΔA.2; details: peak areas of the mass spectrum
Experimental: RTΔA.2 transformants containing pAz-C112X-AU and pRSF-eSelAK were cultured as described previously with the exception that 20 μM Na2SeO3 was added for the 24 hour incubation. Cells were harvested by centrifugation and the periplasmic fraction isolated. Briefly, cell pellets were resuspended in 50 mL of 100 mM Tris and 0.75 M sucrose at pH 7.5. Following addition of lysozyme to 1 mg·mL^−1 and protease inhibitor cocktail cells were gently agitated for 20 min at 4° C. 50 mL of 1 mM EDTA was added and samples incubated again for 20 minutes. EDTA was neutralized by addition of 3.5 mL 0.5M MgCl2 during a further 20 min incubation. Spheroblasts were removed by centrifugation at 35000×g for 30 min, the periplasmic fraction passed through a 0.2 µm filter and mixed with imidazole stock solution to a final concentration of 20 mM. Seleno-azurin was recovered by IMAC using Ni-NTA resin and gravity flow columns. Eluate was concentrated and dialyzed against 50 mM NH4Ac pH 6.5 prior to the isolation of seleno-azurin by size exclusion FPLC. […]
Intact protein samples were analyzed using methods described previously (Ellefson et al., 2014). […] UVPD mass spectra were also deconvoluted using Xtract and then analyzed using ProsightPC 3.0. […] Incorporation efficiencies were calculated by dividing the area of the modified protein peak by the summed areas of the unmodified protein peak and the modified protein peak. […]

[2] = tested on: NMC-A β-lactamase reporter (C69X); assay: NMC-A β-lactamase reporter assay (ampicillin resistance by amber suppression with selenocysteine); assay type: cell-based, E. coli DHΔabc; details: DHΔabc; for ampicillin concentration supporting growth (β-lactamase activity): NMC-A C69X reporter, co-expressed with SelA
Text: A method of genetic selection capable of discriminating different levels of selenocysteine incorporation was developed. To specifically ‘addict’ a reporter protein to selenocysteine rather than serine, the NMC-A β-lactamase from Enterobacter cloacae was used. […] Then cysteine 69 was replaced with an amber stop codon (X69; FIG. 1a) for library selection, hypothesizing that the incorporation of selenocysteine and the formation of a selenyl-sulfhydryl bond would restore activity. (Swardn et al., 1998)
To eliminate any crosstalk between the tRNA^Sec library and the endogenous selenocysteine incorporation machinery, the selA, selB and selC genes (encoding SelA, SelB and tRNA^Sec respectively) were deleted from E. coli DH10B (designated DHΔabc). Cells containing the reporter plasmid pNMC-A C69X and the accessory plasmid pRSF-eSelA (expressing SelA) were transformed with plasmid pMB1-ZU containing the tRNA^Sec antideterminant library. Transformants were plated on media containing a gradient of ampicillin concentrations for selection of mutants capable of selenocysteine-specific suppression. The single colonies that arose covered a range of ampicillin concentrations. […] Of these tRNA^Sec variants, only G7-C66:U49-G65:C50-U64 was detected at the two highest ampicillin concentration (200 and 250 μg·ml^−1).
The tRNA^Sec antideterminant library was generated by enzymatic inverse PCR using oligonucleotide primers (Table 2) to randomize the six positions identified as the main antideterminant for EF-Tu binding. Following self ligation for 16 hours, DNA was ethanol precipitated with GlycoBlue (Ambion) and transformed by electroporation into E. coli DHΔabc containing the plasmids pNMC-A C69X and pRSF-eSelA. Transformants were diluted in 200 ml LB medium containing 12.5 μg·mL^−1 Zeocin, 6.25 μg·mL^−1 tetracycline and 25 μg·mL^−1 kanamycin and incubated overnight. Following overnight growth, cells were diluted 1/50 in LB medium containing 6.25 μg·mL^−1 Zeocin, 3.75 μg·mL^−1 tetracycline, 12.5 μg·mL^−1 kanamycin, 1 μM Na2SeO3 and 20 μg·mL^−1 L-cysteine and incubated for one hour. A series of 250 μl aliquots of cells were plated on LB agar containing 6.25 μg·mL^−1 Zeocin, 3.75 μg·mL^−1 tetracycline, 12.5 […], 1 μM Na2SeO3 and 20 μg·mL^−1 L-cysteine and 50-300 μg·mL^−1 ampicillin in 50 μg·mL^−1 increments. After 20 hours at 37° C. individual colonies were observed on plates containing 50-200 μg·mL^−1 ampicillin. Plasmid DNA was isolated from a selection of colonies from all plates and tRNA^Sec mutations determined by Sanger sequencing.
NotI/NcoI fragments containing tRNA^SecUx were subcloned into pRSF-eSelA to generate pRSF-UX-eSelA. pRSF-U-eSelA variants described in Table 1 were transformed into E. coli DHΔabc containing the reporter plasmid pNMC-A C69TAG. DHΔabc cells containing pNMC-A and pRSFDuet-1 were used as a positive control. DHΔabc cells harboring pNMC-A C69S and pRSF-UX-eSelA, and pNMC-A C69TAG and pRSF-UX-ΔSelA were used as controls for selenocysteine dependent β-lactamase activity. Transformants were cultured overnight in LB medium containing 6.25 μg·mL^−1 tetracycline, 25 μg·mL^−1 kanamycin, 1 μM Na2SeO3 and 20 […]. Following overnight growth, cells were diluted 1/10 in LB medium containing antibiotics, selenite and L-cysteine and incubated for three hours. […]

[3] = tested on: NMC-A β-lactamase reporter (C69X C238X); assay: NMC-A β-lactamase reporter assay in strain lacking release factor 1; assay type: cell-based, E. coli RTΔA; details: RF1-deficient background, two amber codons

Row | Substance | selenocysteine incorporation efficiency in azurin [1] | ampicillin concentration supporting growth (β-lactamase activity) [2] | ampicillin concentration at which the tRNA variant was detected in library selection ([2]; antideterminant library, pNMC-A C69X, pRSF-eSelA) | formation of functional diselenide bond (U69 and U238) in NMC-A [3]
1 | tRNA^SecUx: Evolved E. coli tRNA^Sec variant with the G7-C66:U49-G65:C50-U64 antideterminant sequence and CUA anticodon | greater than 76% | up to 400 μg·ml^−1 | 200 µg/mL and 250 µg/mL | could now support the formation of a functional diselenide bond
2 | tRNA^UTu (GGAAGATGTGGCCGAGCGGTTGAAGGCACCGGT; expressed or natural sequence) |  | 75 µg/mL |  | 
